The values below come from patent US9822128B1, “Substituted spirooxindoles” (KING SAUD UNIVERSITY, priority 2017, dated 2017).

Read-outs that look alike come from different tables or passages of the source.

The test system of one test is Vero-B. Kind of test: MTT cytotoxicity assay, normal kidney cell line. It counts as cell-based, African green monkey. The settings on record: Chlorocebus sabaeus, Vero B, read-out: VERO-B (IC50% μM). Here is the method: (§1) The cytotoxic activity of the compounds was tested against different mammalian cancer cells, prostate carcinoma cells (PC-3), hepatocellular carcinoma (HepG2) and colon cancer cells (HCT-116) and against African green monkey kidney cell line (Vero-B). The cell lines were obtained from American Type Culture Collection (ATCC). The cells were cultivated at 37° C. and 10% CO2 in DMEM (Lonza, 12-604F) medium supplemented with 10% fetal bovine serum (FBS, Lonza, Cat. No. 14-801E), 100 IU/ml penicillin and 100 μg/ml streptomycin (Lonza, 17-602E). Cisplatin (cis-diamineplatinum (II) dichloride) was used as a positive control and was obtained from Sigma then dissolved in 0.9% saline then stored as 8 mM stock solution at −20° C. The synthesized compounds were solubilized in DMSO and stored at −20° C. 0.5% crystal violet was prepared in Methanol and was used to stain the viable cells (Feoktistova, Geserick et al. 2016). Crystal violet binds to proteins and DNA in the adherent and viable cells so the stain is an indicator for the viability of the treated cells. The viability of the cells were quantified by using MTT reagent (3-(4,5-dimethylthiazol-2-yl)-2,5-diphenyl tetrazolium bromide), which measure the activity of mitochondrial dehydrogenase in the viable cells (Slater, Sawyer et al. 1963, Mosmann 1983).
(§2) Cytotoxicity was further assayed as follows. The cells were seeded in 96-well plate as 5*10^4 cells/mL (100 μL/well). A serial dilutions of tested compounds or cisplatin (100, 30, 10, 3.3, 1.1 or 0.37 μM) was added after overnight incubation of the cells at 37° C. and 5% CO2. DMSO was used as a control (0.1%). The cells were incubated for 48 hrs. After that, 15 μl of MTT (5 mg/mL PBS) was added to each well and incubated for another 4 hours. The formazan crystals were solubilized by 100 μL acidified SDS solution (10% SDS/0.01 M HCl). The absorbance was measured after 14 hours of incubation at 37° C. and 5% CO2 at 570 nm by Biotech plate reader. Each experiment was repeated three times and standard deviation was calculated (±). IC50% was calculated as the concentration that cause 50% inhibition for cell growth. The growth of the cells were monitored and the images were acquired by Gx microscopes (GXMGXD202 Inverted Microscope) (10× Eyepiece) after staining with crystal violet.

The next test concerns PC-3. Nature of the test: MTT cytotoxicity assay, prostate carcinoma cells. It counts as cell-based, human. Conditions: for IC50: Homo sapiens, PC-3, MTT, 48 hrs incubation; for SI: Selectivity Index from IC50 normal (VERO-B) and IC50 cancer (PC-3). The protocol: as §1, §2
A further test has as its system HepG2. Kind of test: MTT cytotoxicity assay, hepatocellular carcinoma cells. It counts as cell-based, human. The settings on record: for IC50: Homo sapiens, HepG2, MTT, 48 hrs incubation; for SI: Selectivity Index from IC50 normal (VERO-B) and IC50 cancer (HepG2). The protocol:
as §1, §2

The next test has as its system HCT-116. Kind of test: MTT cytotoxicity assay, colon cancer cells. It counts as cell-based, human. The settings on record: for SI: Selectivity Index from IC50 normal (VERO-B) and IC50 cancer (HCT-116). Here is the method: as §1, §2
For orientation: Formazan colour is commonly taken as a measure of viable cells.

The mark [1] stands for this setting: Table 1, MTT, 48 hrs incubation.
The mark [2] stands for this setting: Homo sapiens, HCT-116, MTT, 48 hrs incubation, read-out: HCT-116 (IC50% μM).
Where [3] appears, read: Homo sapiens, HCT-116, MTT, 48 hrs incubation, read-out: HCT-116 (IC50% μg/ml).
The mark [4] stands for this setting: Homo sapiens, HCT-116, 48 h, read-out: HCT-116 (IC50% μM), MTT, 48 hrs incubation.
The mark [5] stands for this setting: Homo sapiens, HCT-116, 48 h, read-out: HCT-116 (IC50% μg/ml), MTT, 48 hrs incubation.
Setting [6] is: read-out: HCT-116 (IC50% μM), MTT, 48 hrs incubation.

On to `O=C(/C=C/c1ccc(C(F)(F)F)cc1)[C@H]1[C@H](c2ccc(C(F)(F)F)cc2)[C@H]2CSCN2[C@]12C(=O)Nc1ccccc12` [Compound 4n, (3R,6′S,7′R,7a′S)-7′-(4-(trifluoromethyl)phenyl)-6′-((E)-3-(4-(trifluoromethyl)phenyl)acryloyl)-1′,6′,7′,7a′-tetrahydro-3′H-spiro[indoline-3,5′-pyrrolo[1,2-c]thiazol]-2-one], for which the IC50 stood at 2.5 µM with Vero-B (setting [1]); 1 ± 0.2 µM in the test on PC-3 (read-out: PC-3 (IC50% μM)); 0.6 µg/mL in the test on PC-3 (read-out: PC-3 (IC50% μg/ml)); 0.9 ± 0.2 µM in the test on HepG2 (read-out: HepG2 (IC50% μM)); 0.5 µg/mL in the test on HepG2 (read-out: HepG2 (IC50% μg/ml)); 2.9 ± 0.4 µM with HCT-116 (setting [2]). Moreover, the IC50 in the test with HCT-116 (setting [3]) turned out to be 1.7 µg/mL. Moreover, the SI in the test with PC-3 was determined as 2.5; in the test on HepG2, 2.778; in the test with HCT-116, 0.8621.

For the molecule `O=C(/C=C/c1ccc(F)cc1)[C@H]1[C@H](c2ccc(F)cc2)[C@H]2CSCN2[C@]12C(=O)Nc1ccc(Br)cc12` [Compound 4p, (3R,6′S,7′R,7a′S)-5-bromo-7′-(4-fluorophenyl)-6′-((E)-3-(4-fluorophenyl)acryloyl)-1′,6′,7′,7a′-tetrahydro-3′H-spiro[indoline-3,5′-pyrrolo[1,2-c]thiazol]-2-one], the IC50 in the test on Vero-B (setting [1]) amounted to 3 µM; with PC-3 (read-out: PC-3 (IC50% μM)), 1.5 ± 0.1 µM; in the test with PC-3 (read-out: PC-3 (IC50% μg/ml)), 0.8 µg/mL; with HepG2 (read-out: HepG2 (IC50% μM)), 0.8 ± 0.1 µM; in the test with HepG2 (read-out: HepG2 (IC50% μg/ml)), 0.5 µg/mL; in the test with HCT-116 (setting [2]), 3.5 ± 0.3 µM. Also, in the test with HCT-116 (setting [3]), the IC50 stood at 2 µg/mL. The SI in the test on PC-3 came out at 2; in the test on HepG2, 3.75; in the test on HCT-116 it was 0.9571.

Take `O=C(/C=C/c1c(Cl)cccc1Cl)[C@H]1[C@H](c2c(Cl)cccc2Cl)[C@H]2CSCN2[C@]12C(=O)Nc1ccccc12` [Compound 4e, (3R,6′S,7′R,7a′S)-7′-(2,6-dichlorophenyl)-6′-((E)-3-(2,6-dichlorophenyl)acryloyl)-1′,6′,7′,7a′-tetrahydro-3′H-spiro[indoline-3,5′-pyrrolo[1,2-c]thiazol]-2-one]: the IC50 in the test on Vero-B (setting [1]) was 3 µM; in the test on HepG2 (read-out: HepG2 (IC50% μM)) it was 1 ± 0.3 µM; in the test with HepG2 (read-out: HepG2 (IC50% μg/ml)) it was 0.6 µg/mL; in the test on HCT-116 (setting [2]), 3 ± 0.3 µM; with HCT-116 (setting [3]) it was 1.8 µg/mL. Besides, the SI in the test with HepG2 stood at 3; in the test with HCT-116, 1.

In the case of `O=C(/C=C/c1ccc(Cl)cc1)[C@H]1[C@H](c2ccc(Cl)cc2)[C@H]2CSCN2[C@]12C(=O)Nc1ccccc12` [Compound 4c, (3R,6′S,7′R,7a′S)-7′-(4-chlorophenyl)-6′-((E)-3-(4-chlorophenyl)acryloyl)-1′,6′,7′,7a′-tetrahydro-3′H-spiro[indoline-3,5′-pyrrolo[1,2-c]thiazol]-2-one], the IC50 was 7 µM in the test with Vero-B (setting [1]); 2.7 ± 0.4 µM in the test with PC-3 (read-out: PC-3 (IC50% μM)); 1.4 µg/mL in the test with PC-3 (read-out: PC-3 (IC50% μg/ml)); 2 ± 0.5 µM in the test on HepG2 (read-out: HepG2 (IC50% μM)); 1 µg/mL in the test on HepG2 (read-out: HepG2 (IC50% μg/ml)); 3 ± 0.5 µM in the test with HCT-116 (setting [2]). Also, in the test with HCT-116 (setting [3]), the IC50 came to 1.6 µg/mL. The values for the SI in the test with PC-3 and in the test on HepG2 were 2.593 and 3.5, respectively.

Consider `O=C(/C=C/c1ccc(Br)cc1)[C@H]1[C@H](c2ccc(Br)cc2)[C@H]2CSCN2[C@]12C(=O)Nc1ccccc12` [Compound 4f, (3R,6′S,7′R,7a′S)-7′-(4-bromophenyl)-6′-((E)-3-(4-bromophenyl)acryloyl)-1′,6′,7′,7a′-tetrahydro-3′H-spiro[indoline-3,5′-pyrrolo[1,2-c]thiazol]-2-one], for which the IC50 in the test with Vero-B (setting [1]) is 3 µM; with HepG2 (read-out: HepG2 (IC50% μM)), 0.8 ± 0.1 µM; in the test on HepG2 (read-out: HepG2 (IC50% μg/ml)) it was 0.5 µg/mL; in the test with HCT-116 (setting [2]), 3 ± 0.5 µM; in the test on HCT-116 (setting [3]) it was 1.8 µg/mL. In addition, the SI in the test with HepG2 worked out at 3.75; in the test with HCT-116 it was 1.

Take `O=C(/C=C/c1cccs1)[C@H]1[C@H](c2cccs2)[C@H]2CSCN2[C@]12C(=O)Nc1ccccc12` [Compound 4j, (3R,6′S,7′S,7a′S)-7′-(thiophen-2-yl)-6′-((E)-3-(thiophen-2-yl)acryloyl)-1′,6′,7′,7a′-tetrahydro-3′H-spiro[indoline-3,5′-pyrrolo[1,2-c]thiazol]-2-one]: the IC50 with Vero-B (48 h) was 18 µM; in the test with HCT-116 (setting [4]), at least 10 µM; in the test on HCT-116 (setting [5]), 6.7 µg/mL; in the test with HCT-116 (setting [6]), 14.5 ± 1.5 µM. In the test on HCT-116, the SI is on record as 1.241.

Take `O=C(/C=C/c1ccc2ccccc2c1)[C@H]1[C@H](c2ccc3ccccc3c2)[C@H]2CSCN2[C@]12C(=O)Nc1ccccc12` [Compound 4i, (3R,6′S,7′R,7a′S)-7′-(naphthalen-2-yl)-6′-((E)-3-(naphthalen-2-yl)acryloyl)-1′,6′,7′,7a′-tetrahydro-3′H-spiro[indoline-3,5′-pyrrolo[1,2-c]thiazol]-2-one]: the IC50 came to 7 µM with Vero-B (setting [1]); 2.9 ± 0.2 µM in the test with PC-3 (read-out: PC-3 (IC50% μM)); 1.6 µg/mL in the test on PC-3 (read-out: PC-3 (IC50% μg/ml)); 2.4 ± 1 µM in the test with HepG2 (read-out: HepG2 (IC50% μM)); 1.3 µg/mL in the test with HepG2 (read-out: HepG2 (IC50% μg/ml)); 8 ± 0.3 µM in the test on HCT-116 (setting [2]). Also, the IC50 with HCT-116 (setting [3]) was 4.4 µg/mL. Also, the SI in the test with PC-3 is recorded as 2.414; with HepG2 it was 2.917; in the test with HCT-116, 0.875.

For `O=C(/C=C/c1cccc([N+](=O)[O-])c1)[C@H]1[C@H](c2cccc([N+](=O)[O-])c2)[C@H]2CSCN2[C@]12C(=O)Nc1ccccc12` [Compound 4g], the IC50 in the test on Vero-B (48 h) was found to be 2.5 µM; with HCT-116 (setting [4]), 2.5 ± 0.2 µM; in the test with HCT-116 (setting [5]), 1.4 µg/mL. Also, the SI in the test with HCT-116 turned out to be 1.

As for `O=C(/C=C/c1ccco1)[C@H]1[C@H](c2ccco2)[C@H]2CSCN2[C@]12C(=O)Nc1ccccc12` [Compound 4k, (3R,6′S,7′S,7a′S)-7′-(furan-2-yl)-6′-((E)-3-(furan-2-yl)acryloyl)-1′,6′,7′,7a′-tetrahydro-3′H-spiro[indoline-3,5′-pyrrolo[1,2-c]thiazol]-2-one], the IC50 in the test on Vero-B (48 h) is 25 µM; with HCT-116 (setting [4]), at least 10 µM; in the test on HCT-116 (setting [5]), 10.1 µg/mL; in the test with HCT-116 (setting [6]), 19 ± 2 µM. Further, in the test on HCT-116, the SI stood at 1.316.

Consider `Cc1ccc(/C=C/C(=O)[C@H]2[C@H](c3ccc(C)cc3)[C@H]3CSCN3[C@]23C(=O)Nc2ccccc23)cc1` [Compound 4b, (3R,6′S,7′R,7a′S)-7′-(p-tolyl)-6′-((E)-3-(p-tolyl)acryloyl)-1′,6′,7′,7a′-tetrahydro-3′H-spiro[indoline-3,5′-pyrrolo[1,2-c]thiazol]-2-one], for which the IC50 is 11.8 µM in the test on Vero-B (setting [1]); 3.57 ± 0.5 µM in the test on HepG2 (read-out: HepG2 (IC50% μM)); 1.7 µg/mL with HepG2 (read-out: HepG2 (IC50% μg/ml)); 8 ± 1.2 µM with HCT-116 (setting [2]); 3.8 µg/mL in the test with HCT-116 (setting [3]). The SI is listed as 3.305 in the test with HepG2 and 1.475 in the test with HCT-116.

As to `COc1ccc(/C=C/C(=O)[C@H]2[C@H](c3ccc(OC)cc3)[C@H]3CSCN3[C@]23C(=O)Nc2ccccc23)cc1` [Compound 4h, (3R,6′S,7′R,7a′S)-7′-(4-methoxyphenyl)-6′-((E)-3-(4-methoxyphenyl)acryloyl)-1′,6′,7′,7a′-tetrahydro-3′H-spiro[indoline-3,5′-pyrrolo[1,2-c]thiazol]-2-one], the IC50 was found to be 7.5 µM in the test on Vero-B (setting [1]); 2.25 ± 0.2 µM with HepG2 (read-out: HepG2 (IC50% μM)); 1.1 µg/mL in the test with HepG2 (read-out: HepG2 (IC50% μg/ml)); 7 ± 0.9 µM in the test with HCT-116 (setting [2]); 3.6 µg/mL in the test with HCT-116 (setting [3]). Further, the SI with HepG2 is given as 3.333; in the test with HCT-116 it was 1.071.
